{"source": "patent US20250092056A1", "about": "“URACIL DERIVATIVES HAVING VIRUS REPLICATION INHIBITORY ACTIVITY AND PHARMACEUTICAL COMPOSITION COMPRISING THE SAME” (Shionogi & Co., Ltd., priority 2022, published 2025)", "note": "Several values for one entry are separate records, joined by “and”; a condition that tells them apart may be missing. Equal values may be shown once.", "data": [{"target": "Recombinant SARS-CoV-2 3CL Protease (Severe acute respiratory syndrome coronavirus 2 (2019-nCoV) (SARS-CoV-2), UniProt P0DTD1)", "assay": "biochemical", "assay_type": "biochemical", "settings": "50% SARS-CoV-2 3CL protease inhibitory concentration; read-out: IC50", "values": [{"smiles": "C[C@@](O)(CCc1c(-c2ccc(F)c(Cl)c2)c(=O)n(-c2cncc(C#N)c2)c(=O)n1CC#N)C(F)F", "note": "(single isomer, unassigned) [Compound I-430]", "IC50": "< 10 nM"}, {"smiles": "N#CCn1c(N2CC(O)(C(F)(F)F)C2)c(-c2ccc(F)c(Cl)c2)c(=O)n(-c2cnc3cc(Cl)ccn23)c1=O", "note": "[Compound I-135]", "IC50": "10 to 100 nM"}, {"smiles": "N#CCn1c(N2CCC(O)(C(F)(F)F)CC2)c(-c2ccc(F)c(Cl)c2)c(=O)n(-c2cnc3cc(F)ccn23)c1=O", "note": "[Compound I-150]", "IC50": "< 10 nM"}, {"smiles": "N#CCn1c(N2CCC(F)(F)CC2)c(-c2cc(O)cc(Cl)c2)c(=O)n(-c2cncc(Cl)c2)c1=O", "note": "[Compound I-331]", "IC50": "< 10 nM"}, {"smiles": "N#CCn1c(N2CC3(C2)CC(F)(F)C3)c(-c2ccc(F)c(Cl)c2)c(=O)n(-c2cnc3cc(Cl)ccn23)c1=O", "note": "[Compound I-140]", "IC50": "< 10 nM"}, {"smiles": "C[C@@H](C#N)n1c(N2CC3(CCOC3)C2)c(-c2ccc(F)c(Cl)c2)c(=O)n(-c2cncc(Cl)c2)c1=O", "note": "(single isomer, unassigned) [Compound I-262]", "IC50": "< 10 nM"}, {"smiles": "N#CCn1c(N2CC3(C2)CC(F)(F)C3)c(-c2ccc(F)c(Cl)c2)c(=O)n(-c2onc3cc(F)ccc23)c1=O", "note": "[Compound I-304]", "IC50": "< 10 nM"}, {"smiles": "N#CCn1c(N2CC(OC(F)F)C2)c(-c2cc(F)c(F)c(C#N)c2)c(=O)n(-c2cncc(Cl)c2)c1=O", "note": "[Compound I-369]", "IC50": "< 10 nM"}, {"smiles": "N#CCn1c(N2CC(c3ccccc3)C2)c(-c2ccc(F)c(Cl)c2)c(=O)n(-c2cncc(Cl)c2)c1=O", "note": "[Compound I-083]", "IC50": "< 10 nM"}, {"smiles": "N#CCn1c(N2CC3(CCOC3)C2)c(-c2ccc(F)c(Cl)c2)c(=O)n(-c2cnc3ccccn23)c1=O", "note": "[Compound I-043]", "IC50": "10 to 100 nM"}, {"smiles": "N#CCn1c(CCC2CC(F)(F)C2)c(-c2ccc(F)c(Cl)c2)c(=O)n(-c2cncc(Cl)c2)c1=O", "note": "[Compound I-391]", "IC50": "< 10 nM"}, {"smiles": "CCCCc1c(-c2ccc(F)cc2)n(CC#N)c(=O)n(-c2cncc(Cl)c2)c1=O", "note": "[Compound I-286]", "IC50": "10 to 100 nM"}, {"smiles": "N#CCn1c(N2CC3(CCOC3)C2)c(-c2cc(F)cc(Cl)c2)c(=O)n(-c2cncc(Cl)c2)c1=O", "note": "[Compound I-180]", "IC50": "< 10 nM"}, {"smiles": "COc1cnnc(-n2c(=O)c(-c3ccc(F)c(Cl)c3)c(N3CC4(C3)CC(F)(F)C4)n(CC#N)c2=O)c1", "note": "[Compound I-215]", "IC50": "< 10 nM"}, {"smiles": "N#CCn1c(N2CC(O)(C(F)(F)F)C2)c(-c2ccc(F)c(Cl)c2)c(=O)n(-c2cncc(Cl)c2)c1=O", "note": "[Compound I-142]", "IC50": "0.46 nM"}, {"smiles": "Cc1cc(-n2c(=O)c(-c3cc(F)c(F)c(Cl)c3)c(N3CC4(C3)CC(F)(F)C4)n(CC#N)c2=O)cc(=O)[nH]1", "note": "[Compound I-033]", "IC50": "< 10 nM"}, {"smiles": "N#CCn1c(N2CC(C(F)(F)F)C2)c(-c2ccc(F)c(Cl)c2)c(=O)n(-c2cncc(F)c2)c1=O", "note": "[Compound I-295]", "IC50": "< 10 nM"}, {"smiles": "Cc1cncc(-n2c(=O)c(-c3ccc(F)c(Cl)c3)c(C#CC3CC3)n(CC#N)c2=O)c1", "note": "[Compound I-248]", "IC50": "< 10 nM"}, {"smiles": "Cc1cc(-n2c(=O)c(-c3ccc(F)c(Cl)c3)c(-c3ccc(C4CC4)cc3)n(CC#N)c2=O)cc(=O)[nH]1", "note": "[Compound I-183]", "IC50": "10 to 100 nM and < 10 nM"}, {"smiles": "N#CCn1c(N2CC(O)(C(F)(F)F)C2)c(-c2ccc(F)c(Cl)c2)c(=O)n(-c2cnc3cc(F)ccn23)c1=O", "note": "[Compound I-136]", "IC50": "< 10 nM"}, {"smiles": "Cc1cncc(-n2c(=O)c(Cc3cc(F)c(F)c(F)c3)c(N3CCC4(CCOCC4)C3)n(CC#N)c2=O)c1", "note": "[Compound I-111]", "IC50": "< 10 nM"}, {"smiles": "Cc1cc(-n2c(=O)c(-c3ccc(F)c(Cl)c3)c(N3CCC(C(F)(F)F)CC3)n(CC#N)c2=O)cc(=O)[nH]1", "note": "[Compound I-162]", "IC50": "10 to 100 nM"}, {"smiles": "CCCNC(=O)c1c(-c2ccc(F)c(Cl)c2)c(=O)n(-c2cncc(Cl)c2)c(=O)n1CC#N", "note": "[Compound I-405]", "IC50": "> 100 nM"}, {"smiles": "N#CCn1c(N2CC[C@](O)(c3ccccc3)C2)c(-c2ccc(F)c(Cl)c2)c(=O)n(-c2cncc(Cl)c2)c1=O", "note": "(single isomer, unassigned) [Compound I-241]", "IC50": "< 10 nM"}, {"smiles": "N#CCn1c(N2CCC(F)(F)CC2)c(-c2ccc(F)c(C(F)F)c2)c(=O)n(-c2cncc(C#N)c2)c1=O", "note": "[Compound I-417]", "IC50": "< 10 nM"}]}, {"test_system": "SARS-CoV-2", "assay": "Cytopathic effect (CPE) suppression effect confirmation test using HEK293T/ACE2-TMPRSS2 cells", "assay_type": "cell-based", "settings": "Severe acute respiratory syndrome coronavirus 2, HEK-293T, 72 h, read-out: EC50 (50% SARS-CoV-2 infected cell death inhibitory concentration), HEK293T/ACE2-TMPRSS2 cells, CPE suppression, CellTiter-Glo 2.0 after 3 days culture", "units": {"EC50": "nM"}, "values": [{"smiles": "N#CCn1c(N2CC(O)(C(F)(F)F)C2)c(-c2ccc(F)c(Cl)c2)c(=O)n(-c2cncc(Cl)c2)c1=O", "note": "[Compound I-142]", "EC50": 3.35}]}, {"test_system": "SARS-CoV-2", "assay": "Cytopathic effect (CPE) suppression effect confirmation test using HEK293T/ACE2-TMPRSS2 cells", "assay_type": "cell-based", "settings": "Severe acute respiratory syndrome coronavirus 2, HEK-293T, 72 h, read-out: EC50 (50% SARS-CoV-2 infected cell death inhibitory concentration), class, HEK293T/ACE2-TMPRSS2 cells, CPE suppression, CellTiter-Glo 2.0 after 3 days culture", "units": {"EC50": "nM"}, "values": [{"smiles": "N#CCn1c(N2CCC(O)(C(F)(F)F)CC2)c(-c2ccc(F)c(Cl)c2)c(=O)n(-c2cnc3cc(F)ccn23)c1=O", "note": "[Compound I-150]", "EC50": "< 100"}, {"smiles": "N#CCn1c(N2CC3(C2)CC(F)(F)C3)c(-c2ccc(F)c(Cl)c2)c(=O)n(-c2cnc3cc(Cl)ccn23)c1=O", "note": "[Compound I-140]", "EC50": "< 100"}, {"smiles": "N#CCn1c(N2CC(c3ccccc3)C2)c(-c2ccc(F)c(Cl)c2)c(=O)n(-c2cncc(Cl)c2)c1=O", "note": "[Compound I-083]", "EC50": "< 100"}, {"smiles": "N#CCn1c(N2CC3(CCOC3)C2)c(-c2cc(F)cc(Cl)c2)c(=O)n(-c2cncc(Cl)c2)c1=O", "note": "[Compound I-180]", "EC50": "< 100"}, {"smiles": "Cc1cc(-n2c(=O)c(-c3cc(F)c(F)c(Cl)c3)c(N3CC4(C3)CC(F)(F)C4)n(CC#N)c2=O)cc(=O)[nH]1", "note": "[Compound I-033]", "EC50": "100 to 1000"}, {"smiles": "Cc1cc(-n2c(=O)c(-c3ccc(F)c(Cl)c3)c(-c3ccc(C4CC4)cc3)n(CC#N)c2=O)cc(=O)[nH]1", "note": "[Compound I-183]", "EC50": "< 100"}, {"smiles": "N#CCn1c(N2CC(O)(C(F)(F)F)C2)c(-c2ccc(F)c(Cl)c2)c(=O)n(-c2cnc3cc(F)ccn23)c1=O", "note": "[Compound I-136]", "EC50": "< 100"}, {"smiles": "Cc1cncc(-n2c(=O)c(Cc3cc(F)c(F)c(F)c3)c(N3CCC4(CCOCC4)C3)n(CC#N)c2=O)c1", "note": "[Compound I-111]", "EC50": "< 100"}]}, {"test_system": "SARS-CoV-2", "assay": "Cytopathic effect (CPE) suppression effect confirmation test using HEK293T/ACE2-TMPRSS2 cells", "assay_type": "cell-based", "settings": "Severe acute respiratory syndrome coronavirus 2, HEK-293T, 72 h; HEK293T/ACE2-TMPRSS2 cells, CPE suppression, CellTiter-Glo 2.0 after 3 days culture; read-out: EC50 (50% SARS-CoV-2 infected cell death inhibitory concentration), class", "units": {"EC50": "nM"}, "values": [{"smiles": "N#CCn1c(N2CC(O)(C(F)(F)F)C2)c(-c2ccc(F)c(Cl)c2)c(=O)n(-c2cnc3cc(Cl)ccn23)c1=O", "note": "[Compound I-135]", "EC50": "< 100"}, {"smiles": "N#CCn1c(N2CC3(CCOC3)C2)c(-c2ccc(F)c(Cl)c2)c(=O)n(-c2cnc3ccccn23)c1=O", "note": "[Compound I-043]", "EC50": "100 to 1000"}, {"smiles": "Cc1cc(-n2c(=O)c(-c3ccc(F)c(Cl)c3)c(N3CCC(C(F)(F)F)CC3)n(CC#N)c2=O)cc(=O)[nH]1", "note": "[Compound I-162]", "EC50": "100 to 1000"}]}, {"test_system": "SARS-CoV-2", "assay": "Cytopathic effect (CPE) suppression effect confirmation test using HEK293T/ACE2-TMPRSS2 cells", "assay_type": "cell-based", "settings": "Severe acute respiratory syndrome coronavirus 2, HEK-293T; 50% SARS-CoV-2 infected cell death inhibitory concentration; HEK293T/ACE2-TMPRSS2 cells; read-out: EC50", "units": {"EC50": "nM"}, "values": [{"smiles": "C[C@@](O)(CCc1c(-c2ccc(F)c(Cl)c2)c(=O)n(-c2cncc(C#N)c2)c(=O)n1CC#N)C(F)F", "note": "(single isomer, unassigned) [Compound I-430]", "EC50": "< 100"}, {"smiles": "N#CCn1c(N2CCC(F)(F)CC2)c(-c2cc(O)cc(Cl)c2)c(=O)n(-c2cncc(Cl)c2)c1=O", "note": "[Compound I-331]", "EC50": "< 100"}, {"smiles": "C[C@@H](C#N)n1c(N2CC3(CCOC3)C2)c(-c2ccc(F)c(Cl)c2)c(=O)n(-c2cncc(Cl)c2)c1=O", "note": "(single isomer, unassigned) [Compound I-262]", "EC50": "< 100"}, {"smiles": "N#CCn1c(N2CC3(C2)CC(F)(F)C3)c(-c2ccc(F)c(Cl)c2)c(=O)n(-c2onc3cc(F)ccc23)c1=O", "note": "[Compound I-304]", "EC50": "< 100"}, {"smiles": "N#CCn1c(N2CC(OC(F)F)C2)c(-c2cc(F)c(F)c(C#N)c2)c(=O)n(-c2cncc(Cl)c2)c1=O", "note": "[Compound I-369]", "EC50": "< 100"}, {"smiles": "N#CCn1c(CCC2CC(F)(F)C2)c(-c2ccc(F)c(Cl)c2)c(=O)n(-c2cncc(Cl)c2)c1=O", "note": "[Compound I-391]", "EC50": "< 100"}, {"smiles": "CCCCc1c(-c2ccc(F)cc2)n(CC#N)c(=O)n(-c2cncc(Cl)c2)c1=O", "note": "[Compound I-286]", "EC50": "100 to 1000"}, {"smiles": "COc1cnnc(-n2c(=O)c(-c3ccc(F)c(Cl)c3)c(N3CC4(C3)CC(F)(F)C4)n(CC#N)c2=O)c1", "note": "[Compound I-215]", "EC50": "< 100"}, {"smiles": "N#CCn1c(N2CC(C(F)(F)F)C2)c(-c2ccc(F)c(Cl)c2)c(=O)n(-c2cncc(F)c2)c1=O", "note": "[Compound I-295]", "EC50": "< 100"}, {"smiles": "Cc1cncc(-n2c(=O)c(-c3ccc(F)c(Cl)c3)c(C#CC3CC3)n(CC#N)c2=O)c1", "note": "[Compound I-248]", "EC50": "100 to 1000"}, {"smiles": "CCCNC(=O)c1c(-c2ccc(F)c(Cl)c2)c(=O)n(-c2cncc(Cl)c2)c(=O)n1CC#N", "note": "[Compound I-405]", "EC50": "100 to 1000"}, {"smiles": "N#CCn1c(N2CC[C@](O)(c3ccccc3)C2)c(-c2ccc(F)c(Cl)c2)c(=O)n(-c2cncc(Cl)c2)c1=O", "note": "(single isomer, unassigned) [Compound I-241]", "EC50": "< 100"}, {"smiles": "N#CCn1c(N2CCC(F)(F)CC2)c(-c2ccc(F)c(C(F)F)c2)c(=O)n(-c2cncc(C#N)c2)c1=O", "note": "[Compound I-417]", "EC50": "< 100"}]}]}
